{
  "source": "paper PMC7206119",
  "about": "“RIP1 inhibition blocks inflammatory diseases but not tumor growth or metastases” (Cell Death and Differentiation, 2019)",
  "test_in_all_cases": "biochemical",
  "parameters_in_all_cases": "Thermo Fisher SelectScreen kinase panel: Z'-LYTE and Adapta activity, LanthaScreen binding",
  "key": {"ACVR2B": {"target": "ACVR2B (Homo sapiens, UniProt Q13705)", "sequence (Q13705 whole entry)": "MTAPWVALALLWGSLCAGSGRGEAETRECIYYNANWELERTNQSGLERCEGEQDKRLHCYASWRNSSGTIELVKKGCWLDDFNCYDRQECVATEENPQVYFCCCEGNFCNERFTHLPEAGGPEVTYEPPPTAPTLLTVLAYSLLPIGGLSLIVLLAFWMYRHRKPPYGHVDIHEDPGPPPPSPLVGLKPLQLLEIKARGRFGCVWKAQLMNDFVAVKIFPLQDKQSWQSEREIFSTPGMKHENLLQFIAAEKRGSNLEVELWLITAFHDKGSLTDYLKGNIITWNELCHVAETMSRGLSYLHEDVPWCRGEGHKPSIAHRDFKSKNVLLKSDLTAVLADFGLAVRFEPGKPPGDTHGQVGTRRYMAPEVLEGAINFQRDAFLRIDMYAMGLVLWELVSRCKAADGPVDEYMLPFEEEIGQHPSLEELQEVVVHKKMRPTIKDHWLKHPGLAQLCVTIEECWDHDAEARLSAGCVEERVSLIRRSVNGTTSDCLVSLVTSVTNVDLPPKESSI", "procedure": "(§1) 5 88 GNE684 was tested in Thermo Fisher Scientific SelectScreen assay (Madison, WI) 89 against 221 representative kinases at a concentration of 10 µM, which is 476-fold greater than the Ki app 90 for GNE684 against human RIP1 in the RIP1 enzyme 91 assay. The kinase assays were carried out using Z'-LYTE and Adapta activity and 92 LanthaScreen binding assays (Thermo Fisher Scientific, Madison WI) following 93 protocols developed and performed by Thermo Fisher Scientific 94 (https://www.thermofisher.com/us/en/home/products-and-services/services/custom-95 services/screening-and-profiling-services/selectscreen-profiling-service/selectscreen-96 kinase-profiling-service.html). 97 GNE684 was also tested against 468 kinases in the KINOMEscan scanMAX kinase 98 binding assay panel at a concentration of 10 µM following protocols developed and 99 performed by DiscoverX (http://www.discoverx.com/kinase_profiling)."}, "Aurora_A": {"target": "T1, Aurora_A (Homo sapiens, UniProt O14965)", "T1 construct": "gene AURKA", "procedure": "as §1"}, "Aurora_B": {"target": "T2, Aurora_B (Homo sapiens, UniProt Q96GD4)", "T2 construct": "gene AURKB", "procedure": "as §1"}, "BMPR1A": {"target": "BMPR1A (Homo sapiens, UniProt P36894)", "procedure": "as §1"}, "CK1_alpha1": {"target": "T3, CK1_alpha1 (Homo sapiens, UniProt P48729)", "T3 construct": "gene CSNK1A1", "procedure": "as §1"}, "FGFR3": {"target": "FGFR3 (Homo sapiens, UniProt P22607)", "procedure": "as §1"}, "Hyl": {"target": "T4, Hyl (Homo sapiens, UniProt P42679)", "T4 construct": "gene MATK", "T4 sequence (P42679 whole entry)": "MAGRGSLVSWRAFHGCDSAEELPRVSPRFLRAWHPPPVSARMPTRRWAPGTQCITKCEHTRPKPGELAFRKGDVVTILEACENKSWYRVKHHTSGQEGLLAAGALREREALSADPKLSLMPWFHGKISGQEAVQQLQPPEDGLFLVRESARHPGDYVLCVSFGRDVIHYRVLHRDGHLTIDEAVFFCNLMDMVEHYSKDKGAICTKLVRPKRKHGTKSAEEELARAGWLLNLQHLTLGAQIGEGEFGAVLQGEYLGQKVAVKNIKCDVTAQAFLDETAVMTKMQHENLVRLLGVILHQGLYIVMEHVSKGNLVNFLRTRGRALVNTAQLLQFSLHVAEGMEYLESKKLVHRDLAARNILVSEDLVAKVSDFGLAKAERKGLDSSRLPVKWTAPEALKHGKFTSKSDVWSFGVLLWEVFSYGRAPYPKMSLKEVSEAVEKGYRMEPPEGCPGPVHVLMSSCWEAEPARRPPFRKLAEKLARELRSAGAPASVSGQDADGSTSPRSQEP", "procedure": "as §1"}, "IRAK4": {"target": "IRAK4 (Homo sapiens, UniProt Q9NWZ3)", "procedure": "as §1"}, "JNK2": {"target": "T5, JNK2 (Homo sapiens, UniProt P45984)", "T5 construct": "gene MAPK9", "T5 sequence (P45984 whole entry)": "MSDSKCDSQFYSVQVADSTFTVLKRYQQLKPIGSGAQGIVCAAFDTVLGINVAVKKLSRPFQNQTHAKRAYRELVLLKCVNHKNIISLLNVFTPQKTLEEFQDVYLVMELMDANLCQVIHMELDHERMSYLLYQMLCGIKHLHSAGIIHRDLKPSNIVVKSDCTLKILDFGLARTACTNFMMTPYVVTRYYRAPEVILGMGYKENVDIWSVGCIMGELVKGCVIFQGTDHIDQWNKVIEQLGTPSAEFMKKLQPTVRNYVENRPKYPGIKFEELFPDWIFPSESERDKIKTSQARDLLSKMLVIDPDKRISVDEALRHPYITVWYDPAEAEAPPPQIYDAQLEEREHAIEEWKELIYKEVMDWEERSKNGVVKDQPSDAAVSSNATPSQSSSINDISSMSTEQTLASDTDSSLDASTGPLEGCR", "procedure": "as §1"}, "KHS1": {"target": "T6, KHS1 (Homo sapiens, UniProt Q9Y4K4)", "T6 construct": "gene MAP4K5", "procedure": "as §1"}, "MAPKAPK2": {"target": "MAPKAPK2 (Homo sapiens, UniProt P49137)", "procedure": "as §1"}, "MET": {"target": "MET (Homo sapiens, UniProt P08581)", "sequence (P08581 whole entry)": "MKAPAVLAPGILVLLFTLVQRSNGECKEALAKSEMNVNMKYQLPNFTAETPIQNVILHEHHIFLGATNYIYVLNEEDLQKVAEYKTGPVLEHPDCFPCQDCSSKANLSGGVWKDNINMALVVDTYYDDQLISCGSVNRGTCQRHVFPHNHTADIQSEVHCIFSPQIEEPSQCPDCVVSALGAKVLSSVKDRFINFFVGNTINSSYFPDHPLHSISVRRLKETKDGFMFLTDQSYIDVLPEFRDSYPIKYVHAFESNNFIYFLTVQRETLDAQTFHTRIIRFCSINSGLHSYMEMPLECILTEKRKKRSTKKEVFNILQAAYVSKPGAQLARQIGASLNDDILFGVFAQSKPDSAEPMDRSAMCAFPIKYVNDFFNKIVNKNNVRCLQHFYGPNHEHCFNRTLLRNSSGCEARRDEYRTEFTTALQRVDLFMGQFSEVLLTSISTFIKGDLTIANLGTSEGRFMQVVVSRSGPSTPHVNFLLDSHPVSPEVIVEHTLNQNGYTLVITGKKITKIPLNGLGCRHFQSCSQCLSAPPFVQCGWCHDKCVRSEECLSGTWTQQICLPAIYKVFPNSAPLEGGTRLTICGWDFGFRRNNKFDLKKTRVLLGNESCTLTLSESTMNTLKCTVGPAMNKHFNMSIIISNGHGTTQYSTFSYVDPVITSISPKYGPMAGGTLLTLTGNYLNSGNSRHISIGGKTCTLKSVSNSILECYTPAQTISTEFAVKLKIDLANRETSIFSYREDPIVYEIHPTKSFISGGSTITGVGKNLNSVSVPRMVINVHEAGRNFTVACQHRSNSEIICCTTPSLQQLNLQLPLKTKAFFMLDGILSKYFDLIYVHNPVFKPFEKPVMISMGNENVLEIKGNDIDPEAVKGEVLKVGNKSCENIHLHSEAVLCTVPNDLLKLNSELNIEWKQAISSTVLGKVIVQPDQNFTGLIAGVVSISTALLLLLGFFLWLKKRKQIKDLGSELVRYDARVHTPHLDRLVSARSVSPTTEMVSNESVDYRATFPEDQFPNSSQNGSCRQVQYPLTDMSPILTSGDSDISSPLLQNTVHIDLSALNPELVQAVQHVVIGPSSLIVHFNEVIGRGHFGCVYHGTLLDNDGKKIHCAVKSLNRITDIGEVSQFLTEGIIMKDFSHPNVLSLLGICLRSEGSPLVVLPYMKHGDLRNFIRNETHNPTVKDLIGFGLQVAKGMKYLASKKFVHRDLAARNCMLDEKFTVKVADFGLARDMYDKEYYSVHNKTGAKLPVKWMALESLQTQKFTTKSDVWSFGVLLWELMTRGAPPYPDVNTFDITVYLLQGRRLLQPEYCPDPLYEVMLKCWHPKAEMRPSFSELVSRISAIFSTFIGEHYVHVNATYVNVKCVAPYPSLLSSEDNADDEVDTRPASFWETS", "procedure": "as §1"}, "PASK": {"target": "PASK (Homo sapiens, UniProt Q96RG2)", "procedure": "as §1"}, "PDK1(direct)": {"target": "T7, PDK1(direct) (Homo sapiens, UniProt O15530)", "T7 construct": "gene PDPK1; direct", "procedure": "as §1"}, "PI3K-G": {"target": "T8, PI3K-G (Homo sapiens, UniProt P48736)", "T8 construct": "gene PIK3CG; p110gamma", "procedure": "as §1"}, "PKA": {"target": "T9, PKA (Homo sapiens, UniProt P17612)", "T9 construct": "gene PRKACA", "procedure": "as §1"}, "PKC_alpha": {"target": "T10, PKC_alpha (Homo sapiens, UniProt P17252)", "T10 construct": "gene PRKCA", "procedure": "as §1"}, "PKC_zeta": {"target": "T11, PKC_zeta (Homo sapiens, UniProt Q05513)", "T11 construct": "gene PRKCZ", "T11 sequence (Q05513 whole entry)": "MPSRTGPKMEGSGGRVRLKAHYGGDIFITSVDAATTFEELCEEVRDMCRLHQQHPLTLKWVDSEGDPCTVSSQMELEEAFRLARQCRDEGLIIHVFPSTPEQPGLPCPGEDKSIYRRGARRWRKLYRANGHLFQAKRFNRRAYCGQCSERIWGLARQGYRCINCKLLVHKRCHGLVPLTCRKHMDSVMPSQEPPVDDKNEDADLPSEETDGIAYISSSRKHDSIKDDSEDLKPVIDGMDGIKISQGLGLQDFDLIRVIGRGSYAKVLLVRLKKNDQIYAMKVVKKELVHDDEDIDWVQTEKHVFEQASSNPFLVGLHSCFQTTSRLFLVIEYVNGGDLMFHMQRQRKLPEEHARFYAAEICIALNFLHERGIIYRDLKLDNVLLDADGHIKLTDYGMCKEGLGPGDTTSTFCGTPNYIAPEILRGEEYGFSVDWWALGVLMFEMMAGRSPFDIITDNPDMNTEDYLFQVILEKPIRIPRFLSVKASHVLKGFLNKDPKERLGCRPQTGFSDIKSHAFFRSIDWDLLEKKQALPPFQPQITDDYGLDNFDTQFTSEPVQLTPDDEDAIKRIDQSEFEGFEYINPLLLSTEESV", "procedure": "as §1"}, "ROCK1": {"target": "ROCK1 (Homo sapiens, UniProt Q13464)", "procedure": "as §1"}, "SIK2": {"target": "SIK2 (Homo sapiens, UniProt Q9H0K1)", "sequence (Q9H0K1 whole entry)": "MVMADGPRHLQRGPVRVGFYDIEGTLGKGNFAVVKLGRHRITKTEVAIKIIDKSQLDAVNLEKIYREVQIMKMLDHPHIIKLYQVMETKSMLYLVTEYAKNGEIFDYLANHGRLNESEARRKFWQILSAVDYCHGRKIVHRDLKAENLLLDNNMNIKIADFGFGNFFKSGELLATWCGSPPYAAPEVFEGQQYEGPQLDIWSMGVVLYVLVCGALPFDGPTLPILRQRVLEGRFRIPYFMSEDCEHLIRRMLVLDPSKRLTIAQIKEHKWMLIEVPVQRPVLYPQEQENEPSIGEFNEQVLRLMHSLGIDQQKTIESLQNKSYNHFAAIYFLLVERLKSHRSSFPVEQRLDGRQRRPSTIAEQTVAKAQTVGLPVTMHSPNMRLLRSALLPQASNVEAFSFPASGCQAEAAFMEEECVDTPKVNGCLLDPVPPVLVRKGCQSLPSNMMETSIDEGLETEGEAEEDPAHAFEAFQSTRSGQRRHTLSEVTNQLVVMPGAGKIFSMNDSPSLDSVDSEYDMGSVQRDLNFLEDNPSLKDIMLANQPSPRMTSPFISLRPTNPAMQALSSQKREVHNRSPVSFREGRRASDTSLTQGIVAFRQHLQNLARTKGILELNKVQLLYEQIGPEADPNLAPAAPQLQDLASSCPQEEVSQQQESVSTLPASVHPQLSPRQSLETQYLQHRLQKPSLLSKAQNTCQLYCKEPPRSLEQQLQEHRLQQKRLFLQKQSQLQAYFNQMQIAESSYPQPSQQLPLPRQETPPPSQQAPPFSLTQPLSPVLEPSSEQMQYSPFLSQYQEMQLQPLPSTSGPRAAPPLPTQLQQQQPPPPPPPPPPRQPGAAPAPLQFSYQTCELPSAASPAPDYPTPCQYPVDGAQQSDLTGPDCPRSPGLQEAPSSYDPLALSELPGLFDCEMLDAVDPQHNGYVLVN", "procedure": "as §1"}, "TRKB": {"target": "T12, TRKB (Homo sapiens, UniProt Q16620)", "T12 construct": "gene NTRK2", "procedure": "as §1"}, "TYK2": {"target": "TYK2 (Homo sapiens, UniProt P29597)", "procedure": "as §1"}, "WNK2": {"target": "WNK2 (Homo sapiens, UniProt Q9Y3S1)", "procedure": "as §1"}},
  "data": [
    {"smiles": "COc1cc2c(cn1)N(C)C(=O)[C@@H](NC(=O)c1nc3n(n1)[C@H](c1ccccc1)CC3)CC2", "note": "[GNE684, (S)-N-((S)-7-methoxy-1-methyl-2-oxo-2,3,4,5-tetrahydro-1H-pyrido[3,4-b]azepin-3-yl)-5-phenyl-6,7-dihydro-5H-pyrrolo[1,2-b][1,2,4]triazole-2-carboxamide]", "values": [
      {"measurement": "inhibition at 10 µM", "setting": "ACVR2B", "value": 5, "unit": "%"},
      {"measurement": "inhibition at 10 µM", "setting": "Aurora_A", "value": 3, "unit": "%"},
      {"measurement": "inhibition at 10 µM", "setting": "Aurora_B", "value": 6.5, "unit": "%"},
      {"measurement": "inhibition at 10 µM", "setting": "BMPR1A", "value": -4.5, "unit": "%"},
      {"measurement": "inhibition at 10 µM", "setting": "CK1_alpha1", "value": 3, "unit": "%"},
      {"measurement": "inhibition at 10 µM", "setting": "FGFR3", "value": -1.5, "unit": "%"},
      {"measurement": "inhibition at 10 µM", "setting": "Hyl", "value": 1, "unit": "%"},
      {"measurement": "inhibition at 10 µM", "setting": "IRAK4", "value": 5, "unit": "%"},
      {"measurement": "inhibition at 10 µM", "setting": "JNK2", "value": -4, "unit": "%"},
      {"measurement": "inhibition at 10 µM", "setting": "KHS1", "value": 12, "unit": "%"},
      {"measurement": "inhibition at 10 µM", "setting": "MAPKAPK2", "value": 4.5, "unit": "%"},
      {"measurement": "inhibition at 10 µM", "setting": "MET", "value": -2, "unit": "%"},
      {"measurement": "inhibition at 10 µM", "setting": "PASK", "value": 4.5, "unit": "%"},
      {"measurement": "inhibition at 10 µM", "setting": "PDK1(direct)", "value": 5, "unit": "%"},
      {"measurement": "inhibition at 10 µM", "setting": "PI3K-G", "value": 13.5, "unit": "%"},
      {"measurement": "inhibition at 10 µM", "setting": "PKA", "value": 1, "unit": "%"},
      {"measurement": "inhibition at 10 µM", "setting": "PKC_alpha", "value": 3, "unit": "%"},
      {"measurement": "inhibition at 10 µM", "setting": "PKC_zeta", "value": -2.5, "unit": "%"},
      {"measurement": "inhibition at 10 µM", "setting": "ROCK1", "value": 1, "unit": "%"},
      {"measurement": "inhibition at 10 µM", "setting": "SIK2", "value": 8.5, "unit": "%"},
      {"measurement": "inhibition at 10 µM", "setting": "TRKB", "value": -5, "unit": "%"},
      {"measurement": "inhibition at 10 µM", "setting": "TYK2", "value": 3.5, "unit": "%"},
      {"measurement": "inhibition at 10 µM", "setting": "WNK2", "value": -8.5, "unit": "%"}
    ]}
  ]
}
